From patent US11155539B2, “4-pyridinylmethyl-morpholine derivatives and the use thereof as medicament” (Boehringer Ingelheim International GmbH, priority 2018, dated 2021) come the findings set out here.

Molecules are shown by their SMILES. A value given as a limit tells only on which side of the number the result lay.

In series [1] the target is Nav1.6 (Homo sapiens, UniProt Q9UQD0). Kind of series: Nav 1.6 inhibition, IonWorks Quattro electrophysiology. It counts as cell-based. To be noted: normalized to vehicle control (0%) and maximal inhibition control (100%). As to the method: Determination of Nav 1.6.Inhibition
IonWorks Quattro electrophysiological platform
The compounds were prepared in DMSO at 300× the final assay concentrations of 1 and 5 μM.
The 300×DMSO stock solutions were transferred into assay plates where 2 μl per well of each 300× stock solution were placed. All assay plates were stored at −80° C. until the day of assay.
On the day of the assay, the appropriate assay plate was thawed at room temperature, centrifuged, and 198 μl of external recording solution was added and mixed thoroughly. This provided a 1:100 dilution. A further 1:3 dilution occurred upon addition to the cells in the IonWorks Quattro electrophysiological platform, giving a 1:300 dilution in total. On each assay plate, at least 8 wells were reserved for vehicle control (0.3% DMSO) and at least 8 wells for each positive control specific to the cell line tested. The positive controls were tested at a maximal blocking and an approximate IC50 concentration. As positive control Lidocaine at concentrations of 30 and 1000 μM was used.
The solutions for recording Nav1.6 currents were as follows:
Amphotericin B was used to obtain electrical access to the cell interior at a final concentration of 200 μg/ml in internal recording solution.
State-dependent inhibition: Sodium channels when held at depolarized potential or long test pulse, the channels open and inactivate and then stay inactivated until the membrane potential is stepped back to hyperpolarized potentials, when the inactivated channels recover from inactivation into closed state.
Cells were held at −120 mV. In order to completely inactivate the sodium channels (pulse 1), the cells were pulsed to +0 mV for 2500 ms and stepped back to −120 mV for 10 ms (to completely recover from inactivation, however channels that had drugs bound to them will not recover from inactivation) before stepping to +0 mV for 20 ms (pulse 2).
Both the positive and vehicle control data associated with each cell line assayed are shown below as an example. The mean is shown for each positive and negative control as solid symbol with the total number of individual well replicates given next to the solid symbol. In addition, the individual data of each well are shown on the graph as open symbols so that the variation about the mean value can be readily assessed.
Shown below are the assay controls for the Nav1.6 IonWorks Quattro assay.
Tables 3 and 4 show the normalized percentage inhibition of Nav1.6 channel. […] (see also the figure Assay Control Results above).

In series [2] the target is T1, MDR1 (P-gp) (Homo sapiens, UniProt P08183).
T1 construct: expressed in transfected cells; host or cells: MDCKII (Madin-Darby canine kidney)
The experiment in a line: MDCK assay P-gp (permeability across MDCK-MDR1 monolayers). It counts as in vitro ADME. Conditions: for Papp A→B at 2 h: apical-to-basal, MDCK-MDR1 monolayers, pH 7.4; for efflux ratio at 2 h: pH 7.4, Papp (b-a) divided by Papp (a-b), MDCK-MDR1, read-out: efflux ratio PEBA/PEAB. On the procedure: The MDCK assays provide information on the potential of a compound to pass the blood brain barrier. Permeability measurements across polarized, confluent MDCK-MDR1 cell monolayers grown on permeable filter supports are used as an in vitro absorption model: apparent permeability coefficients (PE) of the compounds across the MDCK-MDR1 cell monolayers are measured (pH 7.4, 37° C.) in apical-to-basal (AB) and basal-to-apical (BA) transport direction. The AB permeability (PEAB) represents drug absorption from the blood into the brain and the BA permeability (PEBA) drug efflux from the brain back into the blood via both, passive permeability as well as active transport mechanisms mediated by efflux and uptake transporters that are expressed on the MDCK-MDR1 cells, predominantly by the overexpressed human MDR1. Identical or similar permeabilities in both transport directions indicate passive permeation (PEBA/PEAB≤1), vectorial permeability points to additional active transport mechanisms. Higher PEBA than PEAB (PEBA/PEAB>5) indicates the involvement of active efflux mediated by MDR1, which might compromise the goal to achieve sufficient brain exposure. Therefore, this assay provides valuable support for selection of compounds applicable for further in vivo testing. High permeability not limited by efflux at the blood brain barrier is a favorable characteristic for compounds that are to be used for drugs acting primarily in the CNS.
Apparent permeability coefficients (Papp) of the compounds across the MDCK-MDR1 monolayers (MDCKII cells transfected with human MDR1 cDNA expression plasmid) are measured in apical-to-basal (AB) and basal-to-apical (BA) direction. MDCK-MDR1 cells (6×10^5 cells/cm^2) are seeded on filter inserts (Corning, Transwell, polycarbonate, 0.4 μm pore size) and cultured for 9 to 10 days. Compounds dissolved in DMSO stock solution (1-20 mM) are diluted with HTP-4 aqueous buffer (128.13 mM NaCl, 5.36 mM KCl, 1 mM MgSO4, 1.8 mM CaCl2, 4.17 mM NaHCO3, 1.19 mM Na2HPO4, 0.41 mM NaH2PO4, 15 mM HEPES, 20 mM glucose, pH 7.4) supplemented with 0.25% BSA to prepare the transport solutions (final concentration: 1 or 10 μM, final DMSO<=0.5%). The transport solution is applied to the apical or basolateral donor side for measuring A-B or B-A permeability, respectively. The receiver side contains HTP-4 buffer supplemented with 0.25% BSA. Samples are collected at the start and end of experiment from the donor and at various time intervals for up to 2 hours also from the receiver side for concentration measurement by HPLC-MS/MS (RapidFire High-throughput MS System (Agilent) coupled to QTrap 6500 (AB Sciex) or TSQ Vantage (Thermo Scientific)). Sampled receiver volumes are replaced with fresh receiver solution. Efflux ratio is calculated dividing the Papp (b-a) values by the Papp (a-b) values.

Series [3] is described as follows: Metabolic stability in pooled human liver microsomes. It counts as in vitro ADME. Conditions: pH 7.6, 1 μM compound, 37° C., NADPH, read-out: Half-life - t½ human liver microsomes. From the text:
Stability in human liver microsomes refers to the susceptibility of compounds to biotransformation in the context of selecting and/or designing drugs with favorable pharmacokinetic properties. The primary site of metabolism for many drugs is the liver. Human liver microsomes contain the cytochrome P450s (CYPs), and thus represent a model system for studying drug metabolism in vitro Enhanced stability in human liver microsomes is associated with several advantages, including increased bioavailability and adequate half-life, which can enable lower and less frequent dosing of patients. Thus, enhanced stability in human liver microsomes is a favorable characteristic for compounds that are to be used for drugs.
The metabolic degradation of the test compound was assayed at 37° C. with pooled human liver microsomes. The final incubation volume of 60 μl per time point contains TRIS buffer pH 7.6 at room temperature (0.1 M), magnesium chloride (5 mM aqueous solution), microsomal protein (1 mg/mL for human) and the test compound at a final concentration of 1 μM. Following a short preincubation period at 37° C., the reactions were initiated by addition of betanicotinamide adenine dinucleotide phosphate, reduced form (NADPH, 1 mM), and terminated by transferring an aliquot into acetonitril after different time points. After centrifugation (10000 g, 5 min), an aliquot of the supernatant was assayed by HPLC-MS/MS as described above for the MDCK assay P-gp for the amount of parent compound. The half-life was determined by the slope of the semi-logarithmic plot of the concentration-time profile.
In general terms: Liver microsomes are vesicles of endoplasmic reticulum, rich in cytochrome P450 enzymes.

For series [4], the target named is T2, NMDA NR1/NR2B receptor (Homo sapiens, UniProt Q05586+Q13224).
T2 construct: host or cells: HEK293, tetracycline-inducible expression
The experiment in a line: In vitro NMDA NR1/NR2B cell assay (FLIPR, intracellular calcium induced by glycine/glutamate). It counts as cell-based. To be noted: HEK293 cells expressing NMDA NR1/NR2B; 20 μM glycine, 1 μM glutamate; read-out: IC50 (in vitro NR2B affinity, FLIPR assay). On the procedure:
(§1) A human HEK293 cell line with tetracyclin-inducible expression of NMDA NR1/NR2B receptor was used as a test system for compound efficacy and potency. The cell line was purchased from ChanTest, Catalog #CT6121. Compound activity was determined by measuring the effect of compounds on intracellular calcium concentration induced by glycine/glutamate agonism in a FLIPRtetra system (Molecular Devices).
(§2) The cells were obtained as frozen cells in cryo-vials and stored until use at −150° C. Cells were grown in culture medium (DMEM/F12, 10% FBS, 5 μg/mL Blasticidin, 150 μg/mL Zeozin, 500 μg/mL Geneticin). […] For sub-culturing the cells were detached from flasks by Versene. For the assay, cells were detached, washed twice with induction medium (DMEM/F12 without glutamine, 10% FBS, 2 μg/mL Tetracycline, 2 mM Ketamine) and seeded to 384 well pure coat amine plates (Becton Dickinson, 50000 cells per well in 50 μl) 48 h prior to assay in induction medium.
(§3) The test compounds were dissolved in 100% DMSO at a concentration of 10 mM and in a first step diluted in DMSO to a concentration of 5 mM, followed by serial dilution steps in 100% DMSO. Dilution factor and number of dilution steps may vary according to needs. Typically 8 different concentrations by 1:5 dilutions were prepared in duplicate, further intermediate dilutions (1:37.5) of the substances were carried out with aqueous assay buffer (137 mM NaCl, 4 mM KCl, 1.8 mM CaCl2, 10 mM HEPES, 10 mM Glucose, pH 7.4) resulting in a compound concentration 3 times above the final test concentration and DMSO at 2.7% resulting in 0.9% final DMSO concentration in the assay.
(§4) At the assay day cells were washed 3× with assay buffer (as described above), 10 μL buffer remained in the wells after washing. 10 μL Ca kit loading buffer (AAT Bioquest; prepared from the kit containing the following components: Component A: Fluo-8 NW dissolved in 200 μL DMSO and 20 μl of this solution are mixed with 10 ml buffer prepared out of component B and C, Component B: 10× Pluronic® F127 Plus diluted 1:10 in component C, Component C: HHBS (Hanks with 20 mM Hepes) was added to the cells and the plates were incubated with lid for 60 minutes at room temperature. 20 μl assay buffer containing 60 μM glycine (20 μM final) and 3 μM glutamate (1 μM final) was added to column 1-23, column 24 got assay buffer without glycine/glutamate to serve as negative unstimulated control. Fluorescence (indicating the calcium influx as a result of the NR1/NR2B ion channel activation) was read on the FLIPRtetra device for 60 seconds to monitor the glutamate induced effects. After 2 minutes 20 μL of compound dilution prepared as described above or controls (row 1-22) in assay buffer were carefully added to the wells. […] The average of 2 measurements at 5 minutes and […] 10 seconds after compound addition is calculated and further used for IC50 calculations. Each assay microtiter compound dilution plate contained wells (in column 23 or 24) with DMSO controls instead of compound as controls for glycine/glutamate induced fluorescence (high controls) and wells with 1 μM of a reference NR2B NAM as low controls (Compound 22; reference: Layton, Mark E et al, ACS Chemical Neuroscience 2011, 2(7), 352-362).
(§5) The output file of the reader contains the well number and measured average fluorescence units. For data evaluation and calculation, the measurement of the low control was set as 0% control and the measurement of the high control was set as 100% control. The IC50 values were calculated using the standard 4 parameter logistic regression formula. Calculation: [y=(a−d)/(1+(x/c)^b)+d], a=low value, d=high value; x=conc M; c=IC50 M; b=slope.

For series [5], the target named is T3, NMDA NR1/NR2B receptor (Homo sapiens, UniProt Q13224).
T3 construct: host or cells: HEK293, tetracycline-inducible expression
The series is described as above. It counts as cell-based. To be noted: see Table 2. As to the method: as §1, §2, §3, §4, §5

T2 sequence (Q13224 27-1484, other chains not shown): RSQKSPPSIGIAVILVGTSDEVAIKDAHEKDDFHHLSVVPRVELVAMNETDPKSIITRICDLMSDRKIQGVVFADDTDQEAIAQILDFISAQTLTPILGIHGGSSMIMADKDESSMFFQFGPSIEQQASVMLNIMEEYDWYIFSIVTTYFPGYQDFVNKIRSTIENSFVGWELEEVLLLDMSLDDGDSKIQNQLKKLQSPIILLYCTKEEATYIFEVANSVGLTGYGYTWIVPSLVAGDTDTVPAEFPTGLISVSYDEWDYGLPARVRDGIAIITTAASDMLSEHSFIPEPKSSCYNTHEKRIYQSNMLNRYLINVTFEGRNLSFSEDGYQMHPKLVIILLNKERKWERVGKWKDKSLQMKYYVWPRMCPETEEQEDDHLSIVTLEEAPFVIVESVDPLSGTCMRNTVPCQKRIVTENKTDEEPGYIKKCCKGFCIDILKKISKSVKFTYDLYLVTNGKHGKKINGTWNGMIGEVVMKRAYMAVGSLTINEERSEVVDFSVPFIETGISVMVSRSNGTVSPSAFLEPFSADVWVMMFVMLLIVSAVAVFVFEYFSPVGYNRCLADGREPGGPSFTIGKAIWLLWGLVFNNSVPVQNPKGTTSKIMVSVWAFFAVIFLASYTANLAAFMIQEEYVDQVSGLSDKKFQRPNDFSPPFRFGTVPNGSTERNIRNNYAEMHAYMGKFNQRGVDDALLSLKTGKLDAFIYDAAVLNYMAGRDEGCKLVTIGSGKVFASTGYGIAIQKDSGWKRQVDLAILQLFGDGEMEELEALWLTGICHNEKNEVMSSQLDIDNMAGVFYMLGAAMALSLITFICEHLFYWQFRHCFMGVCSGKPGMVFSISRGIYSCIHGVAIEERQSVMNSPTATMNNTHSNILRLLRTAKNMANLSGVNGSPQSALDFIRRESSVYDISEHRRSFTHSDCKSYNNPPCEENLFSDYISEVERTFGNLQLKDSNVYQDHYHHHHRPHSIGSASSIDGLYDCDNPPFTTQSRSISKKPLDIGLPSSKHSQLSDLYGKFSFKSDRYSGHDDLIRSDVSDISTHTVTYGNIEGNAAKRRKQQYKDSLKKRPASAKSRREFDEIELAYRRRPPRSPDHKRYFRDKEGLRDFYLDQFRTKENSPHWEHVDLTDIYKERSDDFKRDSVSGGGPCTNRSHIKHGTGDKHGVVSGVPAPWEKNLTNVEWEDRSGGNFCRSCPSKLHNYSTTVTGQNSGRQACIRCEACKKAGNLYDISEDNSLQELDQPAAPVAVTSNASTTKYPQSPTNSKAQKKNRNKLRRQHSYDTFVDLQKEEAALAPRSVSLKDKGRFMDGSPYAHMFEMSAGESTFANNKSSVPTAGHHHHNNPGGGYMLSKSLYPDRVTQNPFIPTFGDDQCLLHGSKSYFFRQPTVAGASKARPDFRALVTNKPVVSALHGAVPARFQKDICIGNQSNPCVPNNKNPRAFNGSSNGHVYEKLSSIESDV
Nav1.6, sequence (Q9UQD0 whole entry): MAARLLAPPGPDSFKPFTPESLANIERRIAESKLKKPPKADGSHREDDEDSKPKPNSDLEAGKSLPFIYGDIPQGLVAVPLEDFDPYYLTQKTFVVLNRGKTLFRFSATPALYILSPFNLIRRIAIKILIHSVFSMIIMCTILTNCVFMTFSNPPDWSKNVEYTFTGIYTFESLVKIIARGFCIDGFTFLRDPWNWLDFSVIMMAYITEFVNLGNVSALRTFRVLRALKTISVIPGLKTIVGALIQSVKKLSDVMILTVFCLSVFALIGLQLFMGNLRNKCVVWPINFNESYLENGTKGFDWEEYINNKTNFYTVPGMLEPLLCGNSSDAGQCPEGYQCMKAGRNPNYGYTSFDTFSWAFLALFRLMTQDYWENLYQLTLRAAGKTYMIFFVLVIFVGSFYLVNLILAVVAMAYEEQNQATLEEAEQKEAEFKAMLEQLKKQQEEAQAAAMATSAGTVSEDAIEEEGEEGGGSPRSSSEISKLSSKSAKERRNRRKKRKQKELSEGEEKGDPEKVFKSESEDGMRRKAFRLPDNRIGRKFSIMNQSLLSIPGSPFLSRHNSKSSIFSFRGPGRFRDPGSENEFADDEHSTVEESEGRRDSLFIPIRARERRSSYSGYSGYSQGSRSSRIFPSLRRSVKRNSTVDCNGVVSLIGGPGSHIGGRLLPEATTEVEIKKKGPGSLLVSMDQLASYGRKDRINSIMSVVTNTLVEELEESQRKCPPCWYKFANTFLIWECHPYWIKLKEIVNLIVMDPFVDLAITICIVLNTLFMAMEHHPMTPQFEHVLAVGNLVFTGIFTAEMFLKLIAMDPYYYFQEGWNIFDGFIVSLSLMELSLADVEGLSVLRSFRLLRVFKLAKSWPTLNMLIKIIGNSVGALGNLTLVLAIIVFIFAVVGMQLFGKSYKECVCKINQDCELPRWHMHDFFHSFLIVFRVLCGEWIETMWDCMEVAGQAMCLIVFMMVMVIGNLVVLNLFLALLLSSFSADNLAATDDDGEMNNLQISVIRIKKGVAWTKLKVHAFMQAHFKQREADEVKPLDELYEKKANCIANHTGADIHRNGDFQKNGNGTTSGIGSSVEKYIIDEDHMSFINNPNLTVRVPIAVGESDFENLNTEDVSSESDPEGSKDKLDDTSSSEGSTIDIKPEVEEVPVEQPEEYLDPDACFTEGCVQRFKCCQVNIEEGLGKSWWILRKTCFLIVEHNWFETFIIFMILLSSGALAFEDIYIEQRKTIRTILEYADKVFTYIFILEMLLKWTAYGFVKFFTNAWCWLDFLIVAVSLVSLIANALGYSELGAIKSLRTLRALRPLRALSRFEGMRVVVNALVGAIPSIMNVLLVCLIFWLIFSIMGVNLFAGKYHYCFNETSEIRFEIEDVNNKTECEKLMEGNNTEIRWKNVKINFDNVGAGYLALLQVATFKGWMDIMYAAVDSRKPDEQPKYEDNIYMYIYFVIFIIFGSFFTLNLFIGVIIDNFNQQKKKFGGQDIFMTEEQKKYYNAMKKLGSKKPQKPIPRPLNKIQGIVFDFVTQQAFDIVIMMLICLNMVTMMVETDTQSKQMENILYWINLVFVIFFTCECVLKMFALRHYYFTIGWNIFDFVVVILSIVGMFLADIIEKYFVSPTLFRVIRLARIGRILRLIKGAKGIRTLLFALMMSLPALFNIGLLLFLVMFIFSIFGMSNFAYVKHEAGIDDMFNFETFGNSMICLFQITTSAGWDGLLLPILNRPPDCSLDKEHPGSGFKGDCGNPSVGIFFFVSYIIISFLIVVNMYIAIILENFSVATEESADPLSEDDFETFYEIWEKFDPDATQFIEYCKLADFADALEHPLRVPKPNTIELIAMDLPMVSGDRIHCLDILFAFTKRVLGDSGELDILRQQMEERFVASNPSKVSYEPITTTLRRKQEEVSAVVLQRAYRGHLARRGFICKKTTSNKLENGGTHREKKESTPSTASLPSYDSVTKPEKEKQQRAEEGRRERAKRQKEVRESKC
T1 sequence (P08183 whole entry): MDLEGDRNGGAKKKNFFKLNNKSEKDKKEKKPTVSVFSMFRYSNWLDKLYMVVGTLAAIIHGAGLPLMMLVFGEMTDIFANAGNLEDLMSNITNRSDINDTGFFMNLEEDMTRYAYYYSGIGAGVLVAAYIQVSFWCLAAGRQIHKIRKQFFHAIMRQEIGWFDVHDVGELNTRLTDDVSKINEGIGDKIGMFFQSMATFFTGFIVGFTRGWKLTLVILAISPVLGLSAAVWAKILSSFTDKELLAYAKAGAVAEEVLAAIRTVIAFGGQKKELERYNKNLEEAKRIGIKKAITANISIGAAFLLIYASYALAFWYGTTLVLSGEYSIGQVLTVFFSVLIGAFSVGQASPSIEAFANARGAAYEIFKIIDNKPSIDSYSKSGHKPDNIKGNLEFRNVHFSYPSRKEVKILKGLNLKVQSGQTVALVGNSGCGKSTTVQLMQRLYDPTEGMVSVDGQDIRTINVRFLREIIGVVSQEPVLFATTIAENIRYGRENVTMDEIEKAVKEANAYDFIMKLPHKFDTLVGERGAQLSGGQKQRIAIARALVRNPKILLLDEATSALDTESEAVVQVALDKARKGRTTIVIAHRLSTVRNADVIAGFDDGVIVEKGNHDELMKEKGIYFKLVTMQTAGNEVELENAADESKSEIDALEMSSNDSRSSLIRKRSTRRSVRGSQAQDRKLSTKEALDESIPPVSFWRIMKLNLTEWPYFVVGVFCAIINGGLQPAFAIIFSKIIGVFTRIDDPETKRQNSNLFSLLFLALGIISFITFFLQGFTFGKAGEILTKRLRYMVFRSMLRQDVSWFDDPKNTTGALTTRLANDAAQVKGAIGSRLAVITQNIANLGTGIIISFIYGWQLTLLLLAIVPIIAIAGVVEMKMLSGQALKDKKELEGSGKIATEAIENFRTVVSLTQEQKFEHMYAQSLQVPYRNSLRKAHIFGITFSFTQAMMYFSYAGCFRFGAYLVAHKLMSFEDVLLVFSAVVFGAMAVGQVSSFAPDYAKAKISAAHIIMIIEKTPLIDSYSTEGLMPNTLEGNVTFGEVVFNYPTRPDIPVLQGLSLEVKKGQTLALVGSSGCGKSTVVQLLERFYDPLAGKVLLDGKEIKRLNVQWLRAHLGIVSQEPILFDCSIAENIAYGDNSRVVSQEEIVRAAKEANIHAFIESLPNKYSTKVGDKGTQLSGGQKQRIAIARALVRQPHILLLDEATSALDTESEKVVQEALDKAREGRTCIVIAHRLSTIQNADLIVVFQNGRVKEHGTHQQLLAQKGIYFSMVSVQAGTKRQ

As to `CNC(=O)C1CN(Cc2ccc(Oc3ccc(C)cc3C)nc2)CCO1` (centres unmarked) [Example 13], in series [1], the inhibition at 1 µM is -3.1% and the inhibition at 5 µM is -1.8%. In series [2], the Papp A→B at 2 h is 45 ×10⁻⁶ cm/s and the efflux ratio at 2 h is 1. In series [3], the half-life at 1 μM is more than 2.17 h.
The matching figures for `CNC(=O)C1CN(Cc2ccc(Oc3ccc(F)cc3)nc2)CCO1` (centres unmarked) [Example 14]: 0.7%, 0.4%, 92 ×10⁻⁶ cm/s, 0.4 and more than 2.17 h.
For `CNC(=O)C1CN(Cc2ccc(Oc3ccc(Cl)cc3F)nc2)CCO1` (centres unmarked) [Example 15], in that order: -17.4%, -1.4%, 42 ×10⁻⁶ cm/s, 0.7 and more than 2.17 h.
For `CNC(=O)C1CN(Cc2ccc(Oc3ccc(Cl)cc3)nc2)CCO1` (centres unmarked) [Example 16], in that order: -0.5%, 7.1%, 51 ×10⁻⁶ cm/s, 0.7 and more than 2.17 h.
On to `CNC(=O)[C@@H]1CN(Cc2ccc(Oc3ccc(F)cc3F)cn2)CCO1` [Example 31], for which the 50% inhibitory concentration (IC50) in series [4] was determined as 275 nM. For the same compound, in series [2], the apparent permeability from apical to basolateral (Papp A→B) at 2 h stood at 63 ×10⁻⁶ cm/s and the efflux ratio at 2 h was 0.7. Moreover, the half-life at 1 μM in series [3] was more than 2.17 h.
On to `CNC(=O)[C@@H]1CN(Cc2ccc(Oc3ccc(Cl)cc3F)cn2)CCO1` [Example 32], for which, in series [4], the IC50 amounted to 255 nM. Further, in series [2], the apparent permeability from apical to basolateral (Papp A→B) at 2 h came out at 80 ×10⁻⁶ cm/s and the efflux ratio at 2 h was 0.5. Besides, the half-life at 1 μM in series [3] was more than 2.17 h.
Take `CNC(=O)[C@@H]1CN(Cc2ccc(Oc3ccccc3F)cn2)CCO1` [Example 33]: in series [4], the IC50 is 366 nM. Besides, in series [2], the Papp A→B at 2 h was 71 ×10⁻⁶ cm/s and the efflux ratio at 2 h turned out to be 0.5. In addition, in series [3], the half-life at 1 μM was more than 2.17 h.
For `CNC(=O)[C@@H]1CN(Cc2ccc(Oc3ccc(C)cc3F)cn2)CCO1` [Example 34], in that order: 133 nM, 58 ×10⁻⁶ cm/s, 0.8 and more than 2.17 h.
As for `CCNC(=O)C1CN(Cc2cccc(Oc3ccccc3)c2)CCO1` (centres unmarked) [Example 100 of WO2015/130905, reference compound], the “activity on the NR1-NR2B ion channel (in words)” value in series [5] is listed as “do not show any activity”.
As to `O=C(NCc1ccccn1)C1CN(Cc2cccc(Oc3ccccc3)c2)CCO1` (centres unmarked) [Example 105 of WO2015/130905, reference compound], the “activity on the NR1-NR2B ion channel (in words)” value in series [5] is “do not show any activity”.

By inhibition is commonly meant the change of the read-out against control, counted positive when it falls. For orientation: Papp A→B means the apparent permeability from the apical to the basolateral side of a cell layer. A high value points to fast passage. One may read the half-life as the time in which the quantity being followed falls by half. The IC50 is the concentration that inhibits the measured activity by half.
